From patent US10442778B2, “N1-phenylpropane-1,2-diamine compounds with selective activity in voltage-gated sodium channels” (Merck Sharp & Dohme Corp., priority 2016, dated 2019)

Columns and labels:
[1] = molecular target: T1, human Nav1.5 channels stably expressed in HEK 293 cells (Homo sapiens, UniProt Q14524); test: IonWorks Quattro automated patch-clamp, inactivated state block of Nav1.5 (selectivity); type: cell-based; settings: IonWorks measurement, both channels in HEK 293 cells
T1 construct: expressed in transfected cells; host or cells: HEK 293
Protocol: (§1) Compounds were tested on human Nav1.7 and Nav1.5 channels stably expressed in HEK 293 cells. […] Cells were sealed on a planar substrate using the Population Patch Plate (PPC) technology. Electrical access was obtained using both nystatin and amphotericin. A double-pulse protocol was used for the determination of IC50 values for inactivated state block. Nav1.7 and Nav1.5 expressing cells were voltage clamped at −100 mV and −110 mV, respectively. A depolarizing prepulse to −10 mV (Nav1.7) or −30 mV (Nav1.5) for 1000 ms followed by a 10 ms repolarization to −100 mV (Nav1.7) or −110 mV (Nav1.5) was given to generate fractional channel inactivation of ˜50%, followed by a 10 ms test pulse to −10 mV (Nav1.7) or −30 mV (Nav1.5) to measure peak current in control conditions and after compound addition. The following recording solutions were used (mM). External: 150 NaCl, 2 CaCl2, 5 KCl, 1 Mg Cl2, 10 HEPES, 12 Dextrose; internal: 120 CsF, 30 CsCl, 10 EGTA, 5 HEPES, 5 NaF, 2 MgCl2.
(§2) For all electrophysiology experiments, offline analysis was used to determine percent inhibition as a function of drug concentration. IC50 values were determined by fitting to the Hill equation.

[2] = molecular target: T2, human Nav1.7 channels stably expressed in HEK 293 cells (Homo sapiens, UniProt Q15858); test: IonWorks Quattro automated patch-clamp, inactivated state block of Nav1.7; type: cell-based; settings: double-pulse protocol, read-out: potency for the Nav 1.7 sodium ion channel (as measured by IonWorks)
T2 construct: expressed in transfected cells; host or cells: HEK 293
Protocol: as §1, §2

T2 sequence (Q15858 whole entry): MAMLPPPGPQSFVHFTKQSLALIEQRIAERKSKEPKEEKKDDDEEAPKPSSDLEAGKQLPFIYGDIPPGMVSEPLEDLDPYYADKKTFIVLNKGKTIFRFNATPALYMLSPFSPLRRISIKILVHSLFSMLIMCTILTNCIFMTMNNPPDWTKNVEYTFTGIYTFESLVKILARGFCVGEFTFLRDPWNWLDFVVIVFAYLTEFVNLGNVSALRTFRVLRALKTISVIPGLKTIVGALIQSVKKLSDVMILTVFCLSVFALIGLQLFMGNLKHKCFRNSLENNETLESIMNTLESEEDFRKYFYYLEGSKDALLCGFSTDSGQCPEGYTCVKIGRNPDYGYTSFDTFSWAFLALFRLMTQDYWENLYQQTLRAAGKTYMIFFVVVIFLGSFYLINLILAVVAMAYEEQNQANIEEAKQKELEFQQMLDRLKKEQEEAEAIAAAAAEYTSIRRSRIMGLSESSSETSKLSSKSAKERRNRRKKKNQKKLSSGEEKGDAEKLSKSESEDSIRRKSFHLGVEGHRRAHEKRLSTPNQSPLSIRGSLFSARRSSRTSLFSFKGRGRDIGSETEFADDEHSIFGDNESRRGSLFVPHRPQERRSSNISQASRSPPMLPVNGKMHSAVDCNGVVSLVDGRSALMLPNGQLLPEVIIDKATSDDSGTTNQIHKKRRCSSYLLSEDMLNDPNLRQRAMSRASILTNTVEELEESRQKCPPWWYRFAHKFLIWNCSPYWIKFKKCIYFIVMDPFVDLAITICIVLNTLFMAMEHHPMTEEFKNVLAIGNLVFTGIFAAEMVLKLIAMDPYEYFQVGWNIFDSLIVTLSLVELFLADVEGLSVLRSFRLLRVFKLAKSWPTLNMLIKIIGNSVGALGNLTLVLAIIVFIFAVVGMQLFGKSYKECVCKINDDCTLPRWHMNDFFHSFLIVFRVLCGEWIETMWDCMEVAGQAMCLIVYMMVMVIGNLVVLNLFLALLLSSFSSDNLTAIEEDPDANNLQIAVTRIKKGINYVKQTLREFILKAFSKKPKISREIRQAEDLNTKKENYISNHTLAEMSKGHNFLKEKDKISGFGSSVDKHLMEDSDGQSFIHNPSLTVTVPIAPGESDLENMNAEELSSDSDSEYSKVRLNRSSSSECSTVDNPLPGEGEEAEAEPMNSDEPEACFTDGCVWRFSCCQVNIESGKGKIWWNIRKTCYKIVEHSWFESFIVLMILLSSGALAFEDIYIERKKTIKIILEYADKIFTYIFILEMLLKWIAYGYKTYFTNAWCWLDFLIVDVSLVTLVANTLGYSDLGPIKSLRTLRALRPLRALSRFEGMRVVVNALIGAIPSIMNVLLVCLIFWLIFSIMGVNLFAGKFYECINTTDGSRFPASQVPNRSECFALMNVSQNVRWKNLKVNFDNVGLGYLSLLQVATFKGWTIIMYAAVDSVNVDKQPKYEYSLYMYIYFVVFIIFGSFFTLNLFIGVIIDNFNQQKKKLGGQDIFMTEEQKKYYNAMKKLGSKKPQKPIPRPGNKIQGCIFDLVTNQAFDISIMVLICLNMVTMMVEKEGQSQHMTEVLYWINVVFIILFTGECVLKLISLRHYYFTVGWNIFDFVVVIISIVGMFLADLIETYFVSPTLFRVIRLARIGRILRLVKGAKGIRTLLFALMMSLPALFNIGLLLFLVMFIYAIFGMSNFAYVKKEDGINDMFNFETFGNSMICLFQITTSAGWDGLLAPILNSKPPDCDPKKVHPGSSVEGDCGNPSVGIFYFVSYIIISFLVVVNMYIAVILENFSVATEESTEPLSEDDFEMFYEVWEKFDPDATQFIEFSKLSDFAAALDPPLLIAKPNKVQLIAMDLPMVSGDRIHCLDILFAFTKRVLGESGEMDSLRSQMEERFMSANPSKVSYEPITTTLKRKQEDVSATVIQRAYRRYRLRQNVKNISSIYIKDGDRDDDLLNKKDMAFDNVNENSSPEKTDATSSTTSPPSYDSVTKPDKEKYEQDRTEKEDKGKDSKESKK
T1 sequence (Q14524 whole entry): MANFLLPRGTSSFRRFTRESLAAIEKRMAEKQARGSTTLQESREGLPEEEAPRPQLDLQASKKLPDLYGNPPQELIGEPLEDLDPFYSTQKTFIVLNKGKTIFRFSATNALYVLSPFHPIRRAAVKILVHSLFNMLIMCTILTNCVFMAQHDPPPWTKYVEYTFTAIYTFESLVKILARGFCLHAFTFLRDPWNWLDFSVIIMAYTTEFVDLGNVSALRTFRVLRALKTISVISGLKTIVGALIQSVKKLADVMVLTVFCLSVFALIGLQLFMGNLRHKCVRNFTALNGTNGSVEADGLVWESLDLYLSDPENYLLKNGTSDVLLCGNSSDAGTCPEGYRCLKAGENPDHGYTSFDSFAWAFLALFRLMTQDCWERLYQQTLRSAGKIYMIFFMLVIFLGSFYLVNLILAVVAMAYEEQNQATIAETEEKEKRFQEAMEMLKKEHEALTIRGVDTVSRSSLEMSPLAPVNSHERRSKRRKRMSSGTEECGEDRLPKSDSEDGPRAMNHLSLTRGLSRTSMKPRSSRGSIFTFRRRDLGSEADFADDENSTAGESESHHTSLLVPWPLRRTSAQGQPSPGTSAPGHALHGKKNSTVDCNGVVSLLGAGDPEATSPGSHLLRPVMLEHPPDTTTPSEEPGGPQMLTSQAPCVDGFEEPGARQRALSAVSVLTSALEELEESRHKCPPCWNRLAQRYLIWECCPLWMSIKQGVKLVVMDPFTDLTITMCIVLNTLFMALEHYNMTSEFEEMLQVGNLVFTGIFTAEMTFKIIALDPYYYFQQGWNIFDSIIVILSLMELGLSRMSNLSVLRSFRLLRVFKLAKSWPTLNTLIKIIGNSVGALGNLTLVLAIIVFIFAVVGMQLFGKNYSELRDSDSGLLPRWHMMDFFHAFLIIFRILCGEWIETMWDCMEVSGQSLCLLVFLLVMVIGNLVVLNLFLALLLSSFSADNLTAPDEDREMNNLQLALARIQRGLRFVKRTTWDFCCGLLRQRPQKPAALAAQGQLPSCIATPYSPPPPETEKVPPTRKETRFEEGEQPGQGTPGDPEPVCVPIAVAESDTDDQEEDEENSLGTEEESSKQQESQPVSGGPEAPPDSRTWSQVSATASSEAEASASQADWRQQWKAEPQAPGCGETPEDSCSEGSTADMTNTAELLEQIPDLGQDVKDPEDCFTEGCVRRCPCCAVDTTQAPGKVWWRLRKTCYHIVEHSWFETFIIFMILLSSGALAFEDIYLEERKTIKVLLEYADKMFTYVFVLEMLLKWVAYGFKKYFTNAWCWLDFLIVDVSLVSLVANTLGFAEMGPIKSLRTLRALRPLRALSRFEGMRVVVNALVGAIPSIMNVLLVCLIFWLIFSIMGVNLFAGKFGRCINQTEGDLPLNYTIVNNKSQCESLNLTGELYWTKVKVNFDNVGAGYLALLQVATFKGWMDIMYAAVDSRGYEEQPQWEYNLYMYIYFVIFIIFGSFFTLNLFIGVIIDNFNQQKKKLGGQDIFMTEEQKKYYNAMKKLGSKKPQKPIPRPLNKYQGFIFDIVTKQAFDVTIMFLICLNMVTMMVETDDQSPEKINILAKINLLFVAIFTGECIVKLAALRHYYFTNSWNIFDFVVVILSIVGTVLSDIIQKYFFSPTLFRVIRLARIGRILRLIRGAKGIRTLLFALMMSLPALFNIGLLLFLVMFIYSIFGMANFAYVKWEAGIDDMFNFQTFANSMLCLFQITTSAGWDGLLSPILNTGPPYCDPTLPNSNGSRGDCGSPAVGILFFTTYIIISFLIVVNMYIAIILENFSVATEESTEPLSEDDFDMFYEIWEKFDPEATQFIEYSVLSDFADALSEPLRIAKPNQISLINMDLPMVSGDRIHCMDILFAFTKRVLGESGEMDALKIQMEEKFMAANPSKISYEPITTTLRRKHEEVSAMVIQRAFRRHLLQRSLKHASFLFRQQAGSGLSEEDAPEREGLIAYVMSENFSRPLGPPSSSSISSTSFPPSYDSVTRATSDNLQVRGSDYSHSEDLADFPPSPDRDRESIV

Row | SMILES | ratio of Nav1.7 potency:Nav 1.5 potency [1] | IC50 [2]
1 | CN[C@H](CNc1cc(F)c(S(=O)(=O)Nc2ncc(F)s2)cc1Cl)CC1CC1 [Ex2-18, (S)-5-chloro-4-((3-cyclopropyl-2-(methylamino)propyl)amino)-2-fluoro-N-(5-fluorothiazol-2-yl)-benzenesulfonamide] | > 39 | 850 nM
2 | CN[C@@H](CCC1CC1)CNc1cc(F)c(S(=O)(=O)Nc2ncc(F)s2)cc1Cl [Ex2-19, (S)-5-chloro-4-((4-cyclopropyl-2-(methylamino)butyl)amino)-2-fluoro-N-(5-fluorothiazol-2-yl)-benzenesulfonamide] | > 41 | 800 nM
3 | CN[C@H](CNc1cc(F)c(S(=O)(=O)Nc2ncc(F)s2)cc1Cl)CC1CC1(C)C (stereo partly drawn) [Ex2-20, 5-chloro-4-(((2S)-3-(2,2-dimethylcyclopropyl)-2-(methylamino)propyl)amino)-2-fluoro-N-(5-fluorothiazol-2-yl)-benzenesulfonamide] | > 485 | 68 nM
4 | CN[C@H](CNc1cc(F)c(S(=O)(=O)Nc2ncc(F)s2)cc1Cl)CC1CC1(F)F (stereo partly drawn) [Ex2-22, 5-chloro-4-(((2S)-3-(2,2-difluorocyclopropyl)-2-(methylamino)propyl)amino)-2-fluoro-N-(5-fluorothiazol-2-yl)-benzenesulfonamide] | > 23 | 1000 nM
5 | CN[C@@H](CCC1(C)CC1)CNc1cc(F)c(S(=O)(=O)Nc2ncc(F)s2)cc1Cl [Ex2-23, (S)-5-chloro-2-fluoro-N-(5-fluorothiazol-2-yl)-4-((2-(methylamino)-4-(1-methylcyclopropyl)butyl)amino)benzenesulfonamide] | > 2750 | 12 nM
6 | CN[C@@H](CCC1CCC1)CNc1cc(F)c(S(=O)(=O)Nc2ncc(F)s2)cc1Cl [Ex3-13, (S)-5-chloro-4-((4-cyclobutyl-2-(methylamino)butyl)amino)-2-fluoro-N-(5-fluorothiazol-2-yl)-benzenesulfonamide] | > 110 | 300 nM
7 | [2H]C([2H])([2H])N[C@H](CNc1cc(F)c(S(=O)(=O)Nc2ncc(F)s2)cc1Cl)CC(C)(C)C [Ex3-14, (S)-5-chloro-4-((4,4-dimethyl-2-((methyl-d3)amino)pentyl)amino)-2-fluoro-N-(5-fluorothiazol-2-yl)-benzenesulfonamide] | > 429 | 64 nM
8 | CN[C@H](CNc1cc(F)c(S(=O)(=O)Nc2ncc(F)s2)cc1C#N)CC(C)(C)C [Ex4-3, (S)-5-cyano-4-((4,4-dimethyl-2-(methylamino)pentyl)amino)-2-fluoro-N-(5-fluorothiazol-2-yl)benzenesulfonamide] | > 52 | 640 nM
9 | CN[C@H](CNc1cc(F)c(S(=O)(=O)Nc2ncc(F)s2)cc1Cl)CC1(C)CC1 [Ex6-10, (S)-5-chloro-2-fluoro-N-(5-fluorothiazol-2-yl)-4-((2-(methylamino)-3-(1-methylcyclopropyl)propyl)amino)benzenesulfonamide] | > 68 | 340 nM
10 | CN(C)[C@H](CNc1cc(F)c(S(=O)(=O)Nc2ncc(F)s2)cc1Cl)C[Si](C)(C)C [Ex7-2, (R)-5-chloro-4-((2-(dimethylamino)-3-(trimethylsilyl)propyl)-amino)-2-fluoro-N-(5-fluorothiazol-2-yl)benzenesulfonamide] | > 889 | 18 nM
11 | CCN[C@H](CNc1cc(F)c(S(=O)(=O)Nc2ncc(F)s2)cc1Cl)C[Si](C)(C)C [Ex7-4, (R)-5-chloro-4-((2-(ethylamino)-3-(trimethylsilyl)propyl)amino)-2-fluoro-N-(5-fluorothiazol-2-yl)benzenesulfonamide] | > 11000 | 3 nM
12 | CCCC[C@@H](CNc1cc(F)c(S(=O)(=O)Nc2ncc(F)s2)cc1Cl)NCCC [Ex7-5, (S)-5-chloro-2-fluoro-N-(5-fluorothiazol-2-yl)-4-((2-(propylainino)hexyl)amino) benzenesulfonamide] | > 805 | 41 nM
13 | CCCC[C@@H](CNc1cc(F)c(S(=O)(=O)Nc2ncc(F)s2)cc1Cl)NC(C)C [Ex7-6, (S)-5-chloro-2-fluoro-N-(5-fluorothiazol-2-yl)-4-((2-(isopropylamino)hexyl)amino) benzenesulfonamide] | > 533 | 30 nM
